Patent publication US12559750B2, “Methods and compositions for treatment of polycystic kidney disease” (Regulus Therapeutics Inc., priority 2021, dated 2026)

Experiments:
mice = settings: in vivo; for CNS-related findings noted: mouse, sc, 2000 mg/kg
Experimental: Each compound was tested in a single dose at 2000 mg/kg, and at escalating doses (100, 450, and 2000 mg/kg).

C57Bl/6J male mice = assay: ICV maximum tolerated dose study, Study 1; assay type: in vivo, mouse; settings: for Mortality/total number of mice: 7-day; for MTD: C57Bl/6J mice, predicted from the study
Experimental: Compounds (RG-NG-1017, RGLS4326, RG-NG-1001) were evaluated in a pilot maximum tolerated dose (MTD) study (discussed below). RG-NG-1017, RGLS4326 and RG-NG-1001 were initially evaluated at 4 dose-levels each. RG-NG-1017 was included for evaluation as a non-AMPA-R binding compound, as compared to RGLS4326 and RG-NG-1001, which bind AMPA-R. C57Bl/6J male mice (Jackson Laboratories), age 6-7 weeks, were used in this study. Mice were assigned randomly to treatment groups, and the study was blinded. Animals were allowed to acclimate for no less than 5 days and housed on a 12 hr light/dark cycle (lights on 7:00 AM). No more than 4 mice were house in each cage in a ventilated cage rack system. The diet consisted of standard rodent chow and water ad libitum.
The following parameters were used for this study: • 1. Route(s) of administration: intracerebroventricular (ICV) dosing of RG-NG-1017, RG-NG-1001, RGLS4326 • 2. Dose Volume(s): 4 μL • 3. Formulation(s): vehicle, Ca^2+ and Mg^2+ free dPBS • 4. Dose Frequency: Once • 5. Study duration: 8 Days • 6. Number of Groups: 3 • 7. Number of animals per group: (2-4 each group) • 8. Total number of animals: […]
For the ICV administration, mice were anesthetized and positioned for injections. The skin over the skull was incised, and a small hole was made in the skull above the target using a microdrill. The stereotactic coordinates were anteroposterior (AP), −0.4 mm; mediolateral (ML), +/−1.0-1.5 mm; dorsoventral (DV), −3.0 mm from the bregma for injection into both the right and left lateral cerebral ventricles (Hironaka et al, 2015). Animals were injected unilaterally with 4 μl into the right lateral cerebral ventricle. Compounds were injected over 1-2 min, and the needle was left in place for 0.5-1 min prior to withdrawal. The incision was closed with sutures, wound clips, or VetBond.
Following ICV treatment (Day 0), animals were monitored for 7 days in which daily health checks, body weight, and mortality was recorded. On Day 7, brain and kidney were collected and fixed (10% formalin) and stored pending histology.

AMPA-R (GluA1/GluA4) = biological target: T1, AMPA-R (GluA1/GluA4) (Homo sapiens, UniProt P42261+P48058); assay: Manual whole-cell patch clamp, ChanTest GluA1/GluA4 EZCells; assay type: cell-based; settings: for functional antagonism towards AMPA-R relative to RGLS4326: in words
T1 construct: host or cells: ChanTest GluA1/GluA4 EZCells
T1 sequence (P42261 19-906): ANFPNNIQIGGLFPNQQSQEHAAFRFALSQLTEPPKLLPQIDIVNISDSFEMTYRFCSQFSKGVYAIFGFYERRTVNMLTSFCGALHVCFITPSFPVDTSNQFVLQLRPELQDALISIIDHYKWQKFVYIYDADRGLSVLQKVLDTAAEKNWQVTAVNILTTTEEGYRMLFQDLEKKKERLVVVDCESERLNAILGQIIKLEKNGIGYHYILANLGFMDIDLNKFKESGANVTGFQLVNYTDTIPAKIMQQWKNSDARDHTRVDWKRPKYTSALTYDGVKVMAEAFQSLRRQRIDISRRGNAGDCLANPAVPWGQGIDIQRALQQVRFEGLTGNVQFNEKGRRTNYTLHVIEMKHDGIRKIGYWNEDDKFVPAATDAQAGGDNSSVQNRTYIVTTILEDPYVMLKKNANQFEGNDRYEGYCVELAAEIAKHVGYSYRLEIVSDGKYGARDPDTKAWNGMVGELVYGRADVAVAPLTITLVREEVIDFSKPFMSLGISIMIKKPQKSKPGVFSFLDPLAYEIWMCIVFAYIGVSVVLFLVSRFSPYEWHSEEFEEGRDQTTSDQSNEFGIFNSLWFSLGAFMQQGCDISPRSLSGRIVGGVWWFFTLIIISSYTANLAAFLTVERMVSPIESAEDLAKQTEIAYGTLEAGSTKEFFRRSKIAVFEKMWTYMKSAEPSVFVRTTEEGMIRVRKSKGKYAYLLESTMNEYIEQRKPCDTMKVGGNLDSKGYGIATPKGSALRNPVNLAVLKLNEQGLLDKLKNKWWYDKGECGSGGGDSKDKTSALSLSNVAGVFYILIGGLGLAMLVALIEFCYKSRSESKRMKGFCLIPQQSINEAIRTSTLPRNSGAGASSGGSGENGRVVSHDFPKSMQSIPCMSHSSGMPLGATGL
T1 sequence (P48058 21-902): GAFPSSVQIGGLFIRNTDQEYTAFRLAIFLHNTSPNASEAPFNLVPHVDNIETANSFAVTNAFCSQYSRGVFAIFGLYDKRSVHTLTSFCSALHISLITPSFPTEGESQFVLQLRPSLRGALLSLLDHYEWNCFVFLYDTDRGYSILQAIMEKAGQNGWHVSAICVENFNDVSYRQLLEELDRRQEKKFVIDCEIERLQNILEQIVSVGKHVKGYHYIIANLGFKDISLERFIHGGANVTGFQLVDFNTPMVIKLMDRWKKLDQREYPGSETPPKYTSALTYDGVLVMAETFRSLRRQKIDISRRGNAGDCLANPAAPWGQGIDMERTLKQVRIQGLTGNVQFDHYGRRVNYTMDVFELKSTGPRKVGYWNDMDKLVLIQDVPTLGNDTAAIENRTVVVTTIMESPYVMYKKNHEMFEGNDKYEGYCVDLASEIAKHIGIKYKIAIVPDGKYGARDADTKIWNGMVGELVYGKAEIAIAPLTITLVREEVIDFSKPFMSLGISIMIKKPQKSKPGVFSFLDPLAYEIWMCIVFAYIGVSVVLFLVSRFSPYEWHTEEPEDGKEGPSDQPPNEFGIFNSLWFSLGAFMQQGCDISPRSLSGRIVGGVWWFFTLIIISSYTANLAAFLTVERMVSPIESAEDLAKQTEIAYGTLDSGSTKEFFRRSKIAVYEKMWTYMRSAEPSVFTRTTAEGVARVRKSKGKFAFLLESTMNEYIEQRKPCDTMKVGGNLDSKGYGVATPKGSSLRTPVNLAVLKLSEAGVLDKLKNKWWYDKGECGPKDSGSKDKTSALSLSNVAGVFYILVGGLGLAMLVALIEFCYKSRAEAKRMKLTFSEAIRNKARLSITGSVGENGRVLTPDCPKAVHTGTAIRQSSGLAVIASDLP
Experimental: To evaluate functional antagonism of anti-miR-17 oligonucleotides towards the AMPA-R, certain oligonucleotides were tested using the manual whole-cell patch clamp technique, which records membrane currents as a measure of AMPA-R activity.
Manual whole-cell patch clamp studies were performed by Metrion Biosciences (Cambridge, UK). Whole-cell voltage clamp experiments were performed at room temperature (18-21° C.) using an EPC10 patch clamp amplifier using Patchmaster software (HEKA Elektronik). Glass patch pipettes were fabricated from borosilicate glass capillaries (Harvard Apparatus) to resistances between 1.4 and 2.5 MΩ. Membrane currents were recorded using the whole-cell patch clamp technique. ChanTest® GluA1/GluA4 EZCells were clamped at a holding potential of −80 mV and membrane currents elicited by 10 μM(S)-AMPA delivered using a VC38 perfusion system (ALA Scientific Instruments). The […] current amplitude values were measured with each application of 10 μM(S)-AMPA. The fractional change of current amplitude produced by each concentration of compound was calculated relative to the control current (pre-compound) and expressed as percentage change (% inhibition) for each cell. RGLS4326 was tested in a separate study from all other compounds in Table 6.

AMPA-R = assay: [3H]AMPA radioligand binding assay on rat brain synaptic membranes;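 further: competition binding in which test compounds at rising concentrations displace [3H]AMPA from AMPA-R on rat brain synaptic membranes, with reduced bound radioligand as read-out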
Experimental: The activity of anti-miR-17 compounds was evaluated in a radioligand binding assay which measured the binding of the [^3H] AMPA ligand to the AMPA-R present on rat brain synaptic membranes, in the presence of increasing concentrations of anti-miR-17 compound, anti-miR-17 compounds with affinity for the AMPA-R will bind to and compete with the binding of the [^3H] AMPA ligand.
5.0 nM of the ligand [^3H] AMPA, 1.0 mM of the non-specific ligand L-Glutamic acid, and anti-miR compound at uM concentrations were incubated with synaptic membranes prepared from Wistar rat cerebral cortex for 90 minutes.
The compounds were tested in the radioligand binding assay described herein, to determine the ability of the anti-miR-17 compounds to and compete with the binding of the [3H] AMPA ligand.

miR-17 [1] = assay: miR-17 PD-Sig in mouse kidney cell lines; assay type: cell-based
Experimental: The activity of certain compounds was evaluated using a mouse miR-17 Pharmacodynamic-Signature (miR-17 PD-Sig), which consists of the expression of 18 unique miR-17 target genes normalized by six reference housekeeping genes, to provide an unbiased and comprehensive assessment of miR-17 activity. The mouse miR-17 PD-Sig score was the calculated average of the 18 genes' individual log 2 fold changes (normalized by six housekeeping genes) compared to mock transfection (Lee et al., Nat. Commun., 2019, 10, 4148).
The PD-Sig for RGLS4326 in mIMCD3 cells (77.2, indicated by “*”) was not generated in this experiment; the value in Table 14 is that reported by Lee et al., Nat. Commun., 2019, 10, 4148. Blank cells in the table indicate that a compound was not tested in a particular cell line.

miR-17 [2] = assay: microRNA polysome shift assay (miPSA) in kidney of wild type mice; assay type: in vivo, mouse; set-up: scale not given here; settings: seven days later
Experimental: In vivo potency was evaluated using the microRNA polysome shift assay (miPSA). This assay was used to determine the extent to which compounds directly engage the miR-17 target in the kidney in normal and PKD mice. The miPSA relies on the principle that active miRNAs bind to their mRNA targets in translationally active high molecular weight (HMW) polysomes, whereas the inhibited miRNAs reside in the low MW (LMW) polysomes. Treatment with anti-miR results in a shift of the microRNA from HMW polysomes to LMW polysomes. Thus, the miPSA provides a direct measurement of microRNA target engagement by a complementary anti-miR (Androsavich et al., Nucleic Acids Research, 2015, 44: e13).
Wild type mice were administered a single dose of 0.3 mg/kg, 3 mg/kg, or 30 mg/kg. Kidney tissue was collected seven days later and subjected to the miPSA. The mean displacement score for each treatment is shown in Table 15 (PBS, n=17; RGLS4326 30 mg/kg, n=10; all other treatments, n=4-5). The tested oligonucleotides displaced miR-17 from translationally active polysome (as measured by miPSA) in normal mouse kidneys.

miR-17 [3] = assay: miR-17 luciferase sensor assay in HeLa cells; assay type: cell-based; settings: for EC50: HeLa cells, 18- to 24-hour transfection
Experimental: The in vitro potency of certain compounds was evaluated using a miR-17 luciferase sensor assay which uses a luciferase reporter vector for miR-17, with two fully complementary miR-17 binding sites in tandem in the 3′-UTR of the luciferase gene. HeLa cells were co-transfected with the luciferase reporter vector and an exogenous miR-17-expression vector that acted to repress the luciferase signal.

miR-17 [4] = assay: miR-17 PD-Sig in human kidney cell lines; assay type: cell-based

| Sequence | CNS toxicity in high-dose mouse toxicity studies (mice) | Mortality/total number of mice (C57Bl/6J male mice; single ICV 50 μg) | Mortality/total number of mice (C57Bl/6J male mice; single ICV 100 μg) | Mortality/total number of mice (C57Bl/6J male mice; single ICV 300 μg) | Mortality/total number of mice (C57Bl/6J male mice; single ICV 600 μg) | MTD (C57Bl/6J male mice; single ICV) | % Inhibition on membrane currents evoked with 10 uM (s)-AMPA (Mean ± SD) (AMPA-R (GluA1/GluA4); 0.3 uM compound) | % Inhibition on membrane currents evoked with 10 uM (s)-AMPA (Mean ± SD) (AMPA-R (GluA1/GluA4); 3 uM compound) | IC50 (AMPA-R; Experiment #2) | % Inhibition @ 0.1 uM (AMPA-R; Experiment #2, 0.1 uM) | % Inhibition @ 1 uM (AMPA-R; Experiment #2, 1 uM) | % Inhibition @ 10 uM (AMPA-R; Experiment #2, 10 uM) | % Inhibition @ 100 uM (AMPA-R; Experiment #2, 100 uM) | CNS-related findings noted (mice) | EC50 (miR-17 [1]; mIMCD3, mouse, Normal) | functional antagonism towards AMPA-R relative to RGLS4326 (AMPA-R (GluA1/GluA4)) | miPSA Displacement Score, Mean (miR-17 [2]; single dose 3 mg/kg) | miPSA Displacement Score, Mean (miR-17 [2]; single dose 30 mg/kg) | miPSA Displacement Score, Mean (miR-17 [2]; single dose 0.3 m/kg) | Log2FC (37.5 nM) (miR-17 [3]) | further results |
| --- | --- | --- | --- | --- | --- | --- | --- | --- | --- | --- | --- | --- | --- | --- | --- | --- | --- | --- | --- | --- | --- |
| ASGSCSASCSUSUSUSGS [RG-NG-1001] | ataxia, lethargy | 3/3 | 2/2 | 2/2 | 2/2 | under 2.5 μg | 80.5 ± 6.3% | 88.8 ± 4.5% | 190 nM | 42.2% | 68.3% | 90.1% | 93.5% | – | – | – | – | – | – | – | Mortality/total number of mice (C57Bl/6J male mice; single ICV 2.5 μg): 1/3; Mortality/total number of mice (C57Bl/6J male mice; single ICV 5 μg): 4/4; Mortality/total number of mice (C57Bl/6J male mice; single ICV 10 μg): 3/4; Mortality/total number of mice (C57Bl/6J male mice; single ICV 25 μg): 3/3; IC50 (AMPA-R; Experiment #1): 170 nM; % Inhibition @ 0.1 uM (AMPA-R; Experiment #1, 0.1 uM): 41.1%; % Inhibition @ 1 uM (AMPA-R; Experiment #1, 1 uM): 76.2%; % Inhibition @ 10 uM (AMPA-R; Experiment #1, 10 uM): 89.1%; % Inhibition @ 100 uM (AMPA-R; Experiment #1, 100 uM): 91.3%; IC50 (AMPA-R; Experiment #3): 100 nM; % Inhibition @ 0.1 uM (AMPA-R; Experiment #3, 0.1 uM): 59.4%; % Inhibition @ 1 uM (AMPA-R; Experiment #3, 1 uM): 84.8%; % Inhibition @ 10 uM (AMPA-R; Experiment #3, 10 uM): 94.6%; % Inhibition @ 100 uM (AMPA-R; Experiment #3, 100 uM): 96.6%; IC50 (AMPA-R; Table 8): 150 nM; % Inhibition @ Concentration 100 uM (AMPA-R; Table 8 (3′-terminal nucleobase/sugar variants), 100 uM): 102.9%; % Inhibition @ Concentration 0.1 uM (AMPA-R; Table 8, 0.1 uM): 41.9%; % Inhibition @ Concentration 1 uM (AMPA-R; Table 8, 1 uM): 81.3%; % Inhibition @ Concentration 10 uM (AMPA-R; Table 8, 10 uM): 99.3% |
| ASGSCMAFCFUFUMUSCS [RG-NG-1016] | no CNS-toxicity were observed | – | – | – | – | – | 16.0 ± 6.2% | 27.1 ± 9.8% | > 100000 nM | 4.7% | 10.4% | 12.3% | 5.9% | No | 146 nM | reduced functional antagonism towards AMPA-R | 2.263 | 1.134 | 1.892 | 2.32 | EC50 (miR-17 [3]): 20.3 nM |
| ASGSCMAFCFUFUMUSUS [RG-NG-1017] | no CNS-toxicity were observed | 0/2 | 0/2 | 1/2 | 0/2 | no established MTD | 20.0 ± 6.3% | 28.2 ± 5.5% | > 100000 nM | 0.2% | −1.3% | 4.3% | 8.1% | No | 134 nM | reduced functional antagonism towards AMPA-R | 2.292 | 2.793 | 2.077 | 2.67 | EC50 (miR-17 [4]; HK-2, human, Normal): 49.2 nM; EC50 (miR-17 [4]; WT9-7, human, PKD): 20.1 nM; EC50 (miR-17 [1]; D52B5, mouse, PKD): 74.1 nM; MTD higher than that of RGLS4326 (C57Bl/6J male mice; single ICV): > 40 fold; EC50 (miR-17 [3]): 15 nM |
